Reference: PubChem BioAssay (NCI)
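Test compounds were applied to cells in 96-well plates for 48 hours at 5 doses. At the GI50, growth is halved. TGI: total growth inhibition.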

How the values were obtained:
Experiment in all cases: NCI-60 cell line screen, 48 h
NCI-H460 lung = tested on: NCI-H460 lung
SF-295 CNS = tested on: SF-295 CNS
UO-31 renal = tested on: UO-31 renal
RXF 393 renal = tested on: RXF 393 renal
HCT-116 colon = tested on: HCT-116 colon
DU-145 prostate = tested on: DU-145 prostate
NCI-H226 lung = tested on: NCI-H226 lung
OVCAR-5 ovarian = tested on: OVCAR-5 ovarian
SNB-78 CNS = tested on: SNB-78 CNS
M19-MEL melanoma = tested on: M19-MEL melanoma

Structure (SMILES) | GI50 (NCI-H460 lung) [µM] | TGI (NCI-H460 lung) [µM] | GI50 (SF-295 CNS) [µM] | TGI (SF-295 CNS) [µM] | GI50 (UO-31 renal) [µM] | TGI (UO-31 renal) [µM] | GI50 (RXF 393 renal) [µM] | TGI (RXF 393 renal) [µM] | GI50 (HCT-116 colon) [µM] | TGI (HCT-116 colon) [µM] | GI50 (DU-145 prostate) [µM] | TGI (DU-145 prostate) [µM] | GI50 (NCI-H226 lung) [µM] | TGI (NCI-H226 lung) [µM] | GI50 (OVCAR-5 ovarian) [µM] | TGI (OVCAR-5 ovarian) [µM] | TGI (SNB-78 CNS) [µM] | TGI (M19-MEL melanoma) [µM] | GI50 (M19-MEL melanoma) [µM]
CCCCc1n(Cc2ccc3ccccc3n2)cc[n+]1Cc1ccc2ccccc2c1 | 0.917 | 2.95 | 1.37 | 4.4 | 3.22 | 13.6 | 1.22 | 3.16 | 0.639 | 2.11 | 1.44 | 7.98 | 1 | 6.12 | 1.54 | 8.48 | – | – | –
COc1ccccc1CNC(=O)/C=C/c1ccc(O)c(O)c1 | 45.9 | > 100 | > 100 | > 100 | 20.5 | > 100 | 54.9 | > 100 | 52.6 | > 100 | 82.4 | > 100 | 51.8 | > 100 | > 100 | > 100 | – | – | –
N#Cc1cc2c(=S)[nH]c(=S)[nH]c2nc1SCc1ccccc1 | 38.8 | > 100 | 46.8 | > 100 | 44.8 | > 100 | 31.8 | > 100 | 29.8 | > 100 | 82.9 | > 100 | 24.4 | 94.3 | 76.2 | > 100 | – | – | –
CCOC(=O)C1=C(Nc2cccc3ccccc23)OCC1=O | – | > 100 | – | – | – | > 100 | – | – | – | > 100 | – | – | – | > 100 | – | > 100 | > 100 | – | –
O=C(Oc1c(Cl)c(Cl)c(Cl)c(Cl)c1Cl)C1CCCN1C(=O)OCc1ccccc1 (stereo unspecified) | 3.29 | 10.6 | 2.75 | 8.47 | 2.9 | 12.3 | 3.94 | 15.4 | 3.43 | 10.7 | 4.49 | 20 | 3.82 | 21.7 | 4.28 | 17.1 | – | – | –
CCC1C[N+]2=C(c3cc(OC)c(OC)cc3CC2)c2c1cc1n2CCc2cc(OC)c(OC)cc2-1 (stereo unspecified) | 2.82 | 12.1 | 6.37 | 27.7 | 18.4 | 46.8 | 3.46 | 15.5 | 2.89 | 13.1 | 5.37 | 36.8 | 7.49 | 21.2 | 12.1 | > 100 | – | – | –
COC(=O)[C@]12CC[C@@H](C)[C@H](C)[C@@H]1C1=CC[C@@H]3[C@@]4(C)C(C=O)=C[C@@](C)(COC(=O)c5ccco5)C4=CC[C@@]3(C)[C@]1(C)CC2 | 2.66 | 7.61 | 2.39 | 8.83 | 1.92 | 5.03 | 1.7 | 3.77 | 2.2 | 6.47 | 3.81 | 15.9 | 2.33 | 7.79 | 2.32 | 6.99 | – | – | –
COC(=O)C(Br)(C(=O)OC)C(Br)C(Br)C(Br)c1ccccc1 (stereo unspecified) | 17.2 | 32.3 | 17 | 33.3 | 1.64 | 3.3 | 1.72 | 3.26 | 1.61 | 3.01 | 2.31 | 5.71 | 2.19 | 5.71 | 3.3 | 13 | – | – | –
C#CCOCn1cnc2c(N)ncnc21 | – | > 100 | – | > 100 | – | > 100 | – | – | – | > 100 | – | – | – | > 100 | – | > 100 | > 100 | > 100 | –
CC1=CC[C@@H]2C(=O)C=CC=C[C@H]12.[C-]#[O+].[C-]#[O+].[C-]#[O+].[Fe] | > 100 | > 100 | – | – | > 100 | > 100 | > 100 | > 100 | > 100 | > 100 | – | – | > 100 | > 100 | > 100 | > 100 | – | > 100 | > 100
COc1ccc(-n2nc(C(=O)NCC(=O)Nc3nc4cc(OC)ccc4s3)c3ccccc3c2=O)cc1 | 0.556 | – | 0.346 | 1.62 | 2.28 | – | 0.698 | 2.07 | 1.64 | > 100 | 0.919 | – | 1.48 | 7.5 | 2.32 | > 20.7 | – | – | –
COc1cc2c3c(n(CCCN=[N+]=[N-])c(=O)c2cc1OC)-c1ccc(NC(C)=O)cc1C3=O | 8.97 | > 50 | 8.96 | > 50 | 46.2 | > 50 | > 50 | > 50 | > 50 | > 50 | > 50 | > 50 | > 50 | > 50 | > 50 | > 50 | – | – | –
COc1ccc2cn3c4ccc(O)cc4[nH]c(=O)c3c2c1 | 0.114 | 10.8 | 0.129 | 12.9 | 0.456 | 15.1 | 0.0447 | 1.04 | 0.046 | 1.95 | 0.298 | 15.5 | 0.313 | 22.3 | 2.72 | 21.5 | – | – | –
CN1CCC(n2cnc(-c3ccc(F)cc3)c2-c2ccnc(Nc3ccccc3)n2)CC1 | 5.39 | > 25 | > 19.2 | > 25 | 0.969 | > 11.7 | 10.5 | > 25 | 7.27 | > 25 | 10.4 | > 25 | 18.3 | > 25 | 15 | > 25 | – | – | –
